Test results: patent US10100079B2, “Progesterone-cationic lipid hybrid as anticancer agent and the process of synthesis thereof” (Council of Scientific & Industrial Research, priority 2016, dated 2018)
Like-named read-outs stand apart in the source and are kept apart here.

Assays:
[1] = system: T47D; assay: MTT cytotoxicity assay, T47D; format: cell-based; settings: Homo sapiens, read-out: IC50 T47D
Procedure: (§1) All cells were grown into mycoplasma free condition. […] All cells were grown up to 75-85% confluency after which cells were trypsinized, counted and seeded, in 96-well plates for cell viability studies, 6-well plates for apoptosis studies, 60 mm dish for cell cycle studies and in 25 cm^2 or 75 cm^2 tissue culture flasks for Western blot studies. The primary stock of the cationic progesterone molecules were made in cell culture grade DMSO and from that secondary stock was prepared by serial dilution with cell culture grade DMSO. The final working concentrations were prepared by diluting the secondary stock in cell culture media keeping the DMSO concentration in working solution below 0.2% with respect to cell culture medium. […] For this assay, 12-18 h before treatment cells were plated in 96-well plate at 5000 cells/well density. […] After completion of the treatment, 10 μL of MTT solution (5 mg/mL) was added in each well and incubated for 4 h. Then the media was removed carefully, and the reduced MTT was dissolved in 1:1 (v/v) DMSO/Methanol and absorbance was measured using multimode reader (Synergy H1, BioTek). Results were represented as percentage of viability={[A550(treated cells)−background]/[A550(untreated cells)−background]}×100. The result was summarized and provided as IC50 table in Table 1.

[2] = system: MCF7; assay: MTT cytotoxicity assay, MCF7; format: cell-based; settings: Homo sapiens, read-out: IC50 MCF7
Procedure: as §1

[3] = system: OVCAR-3; assay: MTT cytotoxicity assay, OVCAR-3; format: cell-based; settings: Homo sapiens, read-out: IC50 OVCAR-3
Procedure: as §1

[4] = system: B16F10; assay: MTT cytotoxicity assay, B16F10; format: cell-based, murine
Procedure: as §1

[5] = system: MDA-MB-231; assay: MTT cytotoxicity assay, MDA-MB-231; format: cell-based, human
Procedure: as §1

[6] = system: NIH-3T3; assay: MTT cytotoxicity assay, NIH-3T3; format: cell-based, murine; settings: Mus musculus, read-out: IC50 NIH-3T3
Procedure: as §1

[7] = system: CHO; assay: MTT cytotoxicity assay, CHO; format: cell-based, Chinese hamster; settings: Cricetulus griseus, read-out: IC50 CHO
Procedure: as §1

[8] = system: COS-1; assay: MTT cytotoxicity assay, COS-1; format: cell-based; settings: Chlorocebus aethiops, read-out: IC50 COS-1
Procedure: as §1

[9] = system: cancer cells T47D, OVCAR-3, MDA-MB-231, MCF-7 and B16F10; assay: MTT viability, all tested cancer cells (combination treatment study, FIG. 1A); format: cell-based; settings: 48 h; for toxicity in cancer cells: 10 μM (1+10C: 10 μM+10 μM)
Procedure: FIG. 1A: The viability studies of cancer cells T47D, OVCAR-3, MDA-MB-231, MCF-7 and B16F10 after 48 h of continuous treatment with compound 1 (10 μM), 10C [cationic lipid control molecule not containing progesterone moiety]
Cytotoxicity assay of the different compounds were carried out by using 3-(4,5-dimethylthiazol-2-yl)-2,5-diphenyltetrazolium bromide (MTT). For this assay, 12-18 h before treatment cells were plated in 96-well plate at 5000 cells/well density. After incubation cells were treated continuously for 48 h with respective compounds at different concentration (2.5 μM-40 μM). After completion of the treatment, 10 μL of MTT solution (5 mg/mL) was added in each well and incubated for 4 h. Then the media was removed carefully, and the reduced MTT was dissolved in 1:1 (v/v) DMSO/Methanol and absorbance was measured using multimode reader (Synergy H1, BioTek). Results were represented as percentage of viability={[A550(treated cells)−background]/[A550(untreated cells)−background]}×100. The result was summarized and provided as IC50 table in Table 1.
For combination treatment effect, cells were plated in 96 well plates at 5000 cells/well. […] Following 48 h of treatment cell viability was measured following above mentioned MTT study.

[10] = system: B16F10 (PgR-negative); assay: Cell cycle assay by flow cytometry (PI), B16F10; format: cell-based, murine; settings: B16F10, 10 μM, 24 h
Procedure: (§2) To measure the cellular DNA content, cell cycle assay was carried out. In this assay, first cells were synchronized at early S-phase by double thymidine blocking. When cell confluency was reached around 25-30% in 60 mm dish, cells were treated with 2 mM thymidine, diluted in 10% FBS containing DMEM, for 18 h to block cells at early S-phase. To release the blocking, media was discarded and washed with 1×PBS. Then the cells were incubated with fresh cell culture media containing 10% FBS for 9 h. After releasing, second blocking was done with 2 mM thymidine containing media for 17 h. After second blocking cells were released by discarding the thymidine supplemented media and kept in fresh media. All the respective treatments for cell cycle study were done after 2 h of second release.
(§3) S-phase synchronized cells were either kept untreated or treated with compound 1 (10 μM) and 6c (10 μM) for 24 h. Cells from different treatment groups were harvested, washed with 1×PBS, and fixed with 70% ethanol and kept at −20° C. for overnight. Then the ethanol was removed and washed with 1×PBS. […] After incubation cells were collected by centrifugation, washed with 1×PBS, re-suspended in 500 μL 1×PBS, and data was recorded using flow cytometer (FACS Canto II, Becton-Dickinson, San Jose, Calif., USA) and data were analyzed with FACS Diva software. […]

[11] = system: MDA-MB-231 (PgR-negative); assay: Cell cycle assay by flow cytometry (PI), MDA-MB-231; format: cell-based, human; settings: MDA-MB-231, 10 μM, 24 h
Procedure: as §2, §3

[12] = system: chick embryo vascularization; assay: Chick embryo angiogenesis (CEA) assay; format: in vivo, chicken; settings: 20 μL, 5 μM, 4 h
Procedure: FIG. 7B: In vivo chick embryo angiogenesis (CEA) assay. Vascular sprouting was imaged following 0 h (left panel) and 4 h (right panel) treatment with DMSO, 1 (20 μL, 5 μM) and 6c (20 μL, 5 μM). Damaged vessel is indicated by black arrow.
To measure the anti-angiogenic property chick embryo angiogenesis study was carried out. For this study, fertile chicken eggs were incubated at 37° C. humidified incubator. After four day of incubation, the […] of the eggs were cautiously removed using forceps. After that, the egg yolks were carefully treated with DMSO (20 μL; 0.1% DMSO in IX PBS), compound 1 (20 μL; 5 μM), and 6c (20 μL; 5 μM) for 4 h. Images were captured at 0 and 4 h of incubation with a stereomicroscope (Leica). Different angiogenic parameters were quantified using Angioquant software.

With `CC(=O)[C@H]1CC[C@H]2[C@@H]3CCC4=CC(=O)CC[C@]4(C)[C@H]3CC[C@]12C` [Compound 1, Progesterone] the IC50 ([1]; MTT, 48 h continuous treatment) was > 20 µM, the IC50 ([2]; MCF7, MTT, 48 h continuous treatment) was > 20 µM and the IC50 ([3]; OVCAR-3, MTT, 48 h continuous treatment) was > 20 µM. The IC50 ([4]; Mus musculus, B16-F10, MTT, 48 h continuous treatment, read-out: IC50 B16F10) was > 20 µM, the IC50 ([5]; Homo sapiens, MDA-MB-231, MTT, 48 h continuous treatment, read-out: IC50 MDA-MB-231) was > 20 µM and the IC50 ([6]; NIH3T3, MTT, 48 h continuous treatment, non-cancer cell) was > 20 µM. The IC50 ([7]; MTT, 48 h continuous treatment, non-cancer cell) was > 20 µM, the IC50 ([8]; COS-1, MTT, 48 h continuous treatment, non-cancer cell) was > 20 µM and the “toxicity in cancer cells” value [9] was “did not impart any significant toxicity”. For the same compound, the “total cell population in G2/M phase” value [10] was 19%, the “total cell population in G2/M phase” value [11] was 21% and the “effect on blood vessels / vascularization network” value [12] was “either no effect or little increase in the vascularization network”.

`CCCCCCCCCC[N+](C)(CCCCCCCCCC)CCNC(=O)CCC(=O)O[C@@H](C)[C@H]1CCC2C3CCC4=CC(=O)CC[C@]4(C)C3CC[C@@]21C` (stereo partly drawn) [Compound 6c, N-decyl-N-(2-(4-((1S)-1-((10R,13S,17S)-10,13-dimethyl-3-oxo-2,3,6,7,8,9,10,11,12,13,14, 15,16,17-tetradecahydro-1H-cyclopenta[a]phenanthren-17-yl)ethoxy)-4-oxobutanamido)ethyl)-N-methyldecan-1-aminium chloride] was tested, and the IC50 ([1]; 48 h) was 4.32 ± 0.57 µM, the IC50 ([2]; MCF7, 48 h) was 7.33 ± 0.19 µM and the IC50 ([3]; OVCAR-3, 48 h) was 4.48 ± 0.23 µM. For the same compound, the IC50 ([4]; Mus musculus, B16-F10, 48 h, read-out: IC50 B16F10, MTT, 48 h continuous treatment) was 3.63 ± 0.16 µM, the IC50 ([4]; read-out: IC50 B16F10, MTT, 48 h continuous treatment) was 6.67 ± 0.27 µM and the IC50 ([5]; Homo sapiens, MDA-MB-231, 48 h, read-out: IC50 MDA-MB-231, MTT, 48 h continuous treatment) was 6.67 ± 0.27 µM. For the same compound, the IC50 ([5]; read-out: IC50 MDA-MB-231, MTT, 48 h continuous treatment) was 3.63 ± 0.16 µM, the IC50 ([6]; NIH3T3, 48 h) was > 20 µM and the IC50 ([7]; 48 h) was 17.3 ± 0.29 µM. The IC50 ([8]; COS-1, 48 h) was > 20 µM, the “toxicity in cancer cells” value [9] was “significant toxicity only in cancer cells” and the “cell killing in all tested cancer cells” value ([9]; 2.5 μM-40 μM) was “significant amount of cell killing”. For the same compound, the “total cell population in G2/M phase” value [10] was 33%, the “total cell population in G2/M phase” value [11] was 34% and the “effect on blood vessels / vascularization network” value [12] was “blood vessels were either significantly damaged or new blood vessel formation was delayed”.
